Consider two molecules from US20230074252A1, “DOSAGES AND METHODS FOR TREATING PULMONARY ARTERIAL HYPERTENSION WITH RODATRISTAT” (Altavant Sciences GmbH, priority 2020, published 2023).

Read-outs that look alike come from different tables or passages of the source.

Usually Tmax stands for the time from dosing to the highest level.

Data set [1] in a line: Predicted plasma Cmax for 600 mg rodatristat ethyl BID (ELEVATE1/ELEVATE2). On the set-up: species or system human. The settings on record: for Unbound Cmax: 600 mg BID, conservative 1% free fraction; for Predicted mean maximum plasma concentration (Cmax) / Cmax: 600 mg rodatristat ethyl BID, plasma; for Cmax: read-out: Predicted mean maximum plasma concentration (Cmax). As to the method:
(§1) The potential for rodatristat ethyl or rodatristat to be perpetrators of drug-drug interactions was assessed across in vitro CYP and transporter studies (Tables 1-4). […] This analysis was performed to assess the potential for clinically meaningful DDIs as recommended in FDA Draft Guidance: “In Vitro Metabolism- and Transporter-Mediated Drug-Drug Interaction Studies Guidance for Industry”; October 2017 (FDA, 2017).
(§2) R1 and R3 values using free (non-protein bound) drug levels were calculated based on plasma protein binding (fraction bound, fb) of rodatristat ethyl (0.995) and rodatristat (0.991). The FDA Guidance is set forth In Vitro Metabolism- and Transporter-Mediated Drug-Drug Interaction Studies Guidance for Industry (2017). […] Parameters for the prediction are set forth below in Tables 5 and 6.

The next data set concerns the target T1, CYP2C8 (Homo sapiens, UniProt P10632).
T1 sequence (P10632 1-490): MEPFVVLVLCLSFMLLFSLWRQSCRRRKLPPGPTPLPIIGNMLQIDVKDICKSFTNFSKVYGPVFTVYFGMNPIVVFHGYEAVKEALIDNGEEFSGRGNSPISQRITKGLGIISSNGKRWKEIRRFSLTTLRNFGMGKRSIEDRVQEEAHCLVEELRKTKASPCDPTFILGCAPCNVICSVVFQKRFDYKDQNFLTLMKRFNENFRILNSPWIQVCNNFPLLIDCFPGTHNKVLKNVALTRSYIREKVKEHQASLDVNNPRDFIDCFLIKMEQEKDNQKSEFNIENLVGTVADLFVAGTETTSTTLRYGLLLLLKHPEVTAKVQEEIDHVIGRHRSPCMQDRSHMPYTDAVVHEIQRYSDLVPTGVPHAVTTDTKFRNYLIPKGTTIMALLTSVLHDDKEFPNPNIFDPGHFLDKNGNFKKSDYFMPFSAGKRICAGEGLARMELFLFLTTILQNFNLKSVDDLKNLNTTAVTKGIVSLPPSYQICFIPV
The data set is described as follows: FDA guidance DDI risk assessment, perpetrator potential. Further details: from tissue; host or cells: pooled human liver microsomes (n=200 donors). To be noted: for Potential for interaction (perpetrator), CYP2C8: predicted @ 600 mg BID. As to the method: as §1, §2

The target in another data set is CYP2C9 (Homo sapiens, UniProt P11712). The description is as above. To be noted: predicted @ 600 mg BID. On the set-up: from tissue; host or cells: pooled human liver microsomes (n=200 donors). As to the method:
as §1, §2

The test system of the next data set is CYP isoforms. The data set is described as follows: Time-dependent CYP inhibition (overall statement). Type of data set: in vitro ADME, human.
Data set [2] in a line: Clinical pharmacokinetics in healthy subjects (Studies RVT-1201-1001 and KAR5585-101). In kind it is in vivo, human. As to the method:
Clinical Study RVT-1201-1001 was a single and repeat dose study of RVT-1201 in healthy subjects to evaluate the pharmacokinetic profile of RVT-1201 and its active metabolite KAR5417. In Part 1 of this study, a single oral dose of 400 mg RVT-120 was administered as an oral powder in Regimen A and B, and as immediate release tablets in Regimen C, to 9 healthy male subjects. In addition, a single 1200 mg dose as immediate release tablets was administered in Regimen D.
Following oral administration in the fed state, RVT-1201 was well absorbed and peak plasma levels were achieved after a median time of 2.5 h. […] The planned clinical dose schedule of RVT-1201 in ELEVATE2 is up to 600 mg BID. […] The geometric mean apparent clearance was 900 L/h after oral administration in Regimen C of Clinical Study RVT-1201-1001. Elimination of RVT-1201 was rapid, and primarily facilitated by hydrolysis to KAR5417. Formation of KAR5417 was attributed to de-esterification of RVT-1201.
KAR5417 is rapidly formed after oral administration of RVT-1201.
Data from two clinical studies were used to verify the PBPK model (Clinical Study KAR5585-101 and Clinical Study RVT-1201-1001). Clinical Study KAR5585-101 was a randomized, double blind, placebo-controlled, Phase 1, first-in-human study to characterize the pharmacokinetics of single and multiple ascending doses of RVT-1201 in healthy subjects. RVT-1201 and KAR5417 plasma concentration data on Day 1, 7 and 14 of 400 mg BID administration in fed subjects were used to support verification of the PBPK model. In addition, multiple dose RVT-1201 and KAR5417 plasma concentration data on Day 1, 7 and 14 of 400 mg or 800 mg BID administration in fed subjects in Clinical Study RVT-1201-1001 were also used to support model verification.

The target of another data set is T2, MATE1 (Homo sapiens, UniProt Q96FL8).
T2 sequence (Q96FL8 1-570): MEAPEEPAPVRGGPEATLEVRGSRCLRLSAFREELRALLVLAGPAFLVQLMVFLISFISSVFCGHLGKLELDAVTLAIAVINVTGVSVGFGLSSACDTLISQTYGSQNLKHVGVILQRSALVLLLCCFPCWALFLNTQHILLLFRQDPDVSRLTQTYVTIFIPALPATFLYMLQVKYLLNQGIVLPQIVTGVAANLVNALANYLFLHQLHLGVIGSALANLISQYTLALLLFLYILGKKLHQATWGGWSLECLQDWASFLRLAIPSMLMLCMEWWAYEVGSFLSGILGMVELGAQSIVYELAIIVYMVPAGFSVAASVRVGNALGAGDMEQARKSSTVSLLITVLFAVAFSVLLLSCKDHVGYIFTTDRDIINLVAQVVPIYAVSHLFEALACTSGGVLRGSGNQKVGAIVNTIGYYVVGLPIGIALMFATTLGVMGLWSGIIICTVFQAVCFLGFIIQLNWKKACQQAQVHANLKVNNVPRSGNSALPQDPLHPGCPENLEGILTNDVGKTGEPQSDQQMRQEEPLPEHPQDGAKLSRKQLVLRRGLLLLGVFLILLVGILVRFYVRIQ
Nature of the data set: In vitro transporter substrate assessment. Type of data set: in vitro ADME. From the text:
Consequently, the elimination of rodatristat into bile may be impacted by co-administration with agents that are BCRP inhibitors.

Sequence of CYP2C9 (P11712 whole entry): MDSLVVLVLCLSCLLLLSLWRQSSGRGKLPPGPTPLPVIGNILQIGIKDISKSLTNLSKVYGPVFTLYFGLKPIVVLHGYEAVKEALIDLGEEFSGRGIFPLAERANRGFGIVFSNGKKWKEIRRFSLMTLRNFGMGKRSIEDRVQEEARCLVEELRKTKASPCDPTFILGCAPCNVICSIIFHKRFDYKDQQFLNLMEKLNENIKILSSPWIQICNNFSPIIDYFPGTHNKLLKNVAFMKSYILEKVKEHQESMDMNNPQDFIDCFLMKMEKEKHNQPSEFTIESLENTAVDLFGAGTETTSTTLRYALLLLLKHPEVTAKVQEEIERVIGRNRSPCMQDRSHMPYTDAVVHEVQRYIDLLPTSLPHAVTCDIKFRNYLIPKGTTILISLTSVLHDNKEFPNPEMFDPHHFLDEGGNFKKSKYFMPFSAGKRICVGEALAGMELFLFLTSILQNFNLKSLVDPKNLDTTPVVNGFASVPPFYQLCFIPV

For the molecule `CCOC(=O)[C@@H]1CC2(CCN(c3cc(O[C@H](c4ccc(Cl)cc4-c4ccccc4)C(F)(F)F)nc(N)n3)CC2)CN1` [Rodatristat ethyl, (S)-ethyl 8-(2-amino-6-((R)-1-(5-chloro-[1,1′-biphenyl]-2-yl)-2,2,2-trifluoroethoxy)pyrimidin-4-yl)-2,8-diazaspiro[4.5]decane-3-carboxylate], in data set [1], the “Unbound Cmax” value was 2.5 nM, the “Predicted mean maximum plasma concentration (Cmax)” value is on record as 149 ng/mL and the Cmax was 252 nM. Besides, the “Potential for interaction (perpetrator), CYP2C8” value at CYP2C8 is given as “No”. The “Potential for interaction (perpetrator), CYP2C9” value at CYP2C9 is on record as “No”. Further, in the data set on CYP isoforms, the “Time-dependent inhibition of CYP isoforms” value is “not time-dependent CYP inhibitors”. In data set [2] (human, plasma, oral, 400 mg BID dosing, read-out: Average geometric mean plasma terminal t1/2 (converted)), the half-life is 5.2 h. The “Geometric mean apparent clearance” value in data set [2] (oral, Regimen C (400 mg single dose, fed)) is recorded as 900 L/h. Also, in data set [2] (oral, fed state, healthy subjects), the “Median time to peak plasma levels” value is 2.5 h. In data set [2] (twice daily schedule, up to 600 mg BID, expected), the “Accumulation after multiple dosing” value was under 1.5 fold.

As for `Nc1nc(O[C@H](c2ccc(Cl)cc2-c2ccccc2)C(F)(F)F)cc(N2CCC3(CC2)CN[C@H](C(=O)O)C3)n1` [Rodatristat, (S)-8-(2-amino-6-((R)-1-(5-chloro-[1,1′-biphenyl]-2-yl)-2,2,2-trifluoroeth-oxy)pyrimidin-4-yl)-2,8-diazaspiro[4.5]decane-3-carboxylic acid], in data set [1], the “Unbound Cmax” value is 20 nM, the “Predicted mean maximum plasma concentration (Cmax)” value is recorded as 1130 ng/mL and the Cmax is 2010 nM. Besides, in data set [1] (listed as rodatristat), the “Unbound Cmax” value is 20.1 nM. Moreover, the “Ratio of unbound Cmax to Ki, CYP2C8” value at CYP2C8 (600 mg BID) is 0.014. In addition, the “Potential for interaction (perpetrator), CYP2C8” value on CYP2C8 is “No”. Besides, the “Potential for interaction (perpetrator), CYP2C9” value on CYP2C9 is “No”. Further, the “Time-dependent inhibition of CYP isoforms” value in the data set on CYP isoforms (listed as rodatristat) is “not time-dependent CYP inhibitors”. The “Cmax greater than the Cmax of RVT-1201” value in data set [2] (Regimen C, 400 mg single dose of RVT-1201) was “approximately 5 fold”. In addition, in data set [2] (male, human, plasma, 400 mg, after oral RVT-1201, Regimen C, read-out: Geometric mean plasma terminal t1/2 (converted)), the half-life is 12.3 h. In data set [2] (male, human, plasma, oral, Regimen C, 400 mg single dose of RVT-1201, read-out: Geometric mean Cmax), the Cmax amounted to 517 ng/mL. Also, in data set [2] (male, human, plasma, oral, Regimen C, 400 mg single dose of RVT-1201, read-out: Median Tmax), the time to peak (Tmax) stood at 3.5 h. For the same molecule, at MATE1, the “In vitro substrate? MATE1” value is “not an in vitro substrate and No”.
